{"source": "patent US20250161408A1", "about": "“PEPTIDIC INHIBITORS OF AMYLOID SELF- AND CROSS-ASSEMBLY” (TECHNISCHE UNIVERSITÄT MÜNCHEN, priority 2022, published 2025)", "key": {"proteinase K": {"tested_on": "proteinase K", "assay": "Proteinase K (PK) fibril digestion assay with dot blot", "conditions": "IAPP-related fibrils; 37° C.; dot blot with anti-fIAPP and anti-Aβ antibodies", "experimental": "Solutions made as above but w/o PK were used as controls for 100% undigested fibrils. Solutions were incubated at 37° C. and at indicated time points aliquots were dotted onto nitrocellulose membranes and spots were quickly dried by air. Membranes were washed (TBS-T) and blocked (5% milk in TBS-T, overnight (10° C.)). […] Primary antibodies were combined with goat anti-mouse-POD (1:1000) or donkey anti-rabbit-POD (1:5000); detection was as under “Cross-linking, NuPAGE and WB”."}, "Aβ42 [1]": {"target": "T1, Aβ42 (Homo sapiens, UniProt P05067)", "T1 construct": "the 40(42)-residue peptide Aβ40(42); made in house; host or cells: chemical synthesis (Fmoc-SPPS), monomer isolated by SEC", "T1 sequence (P05067 672-713)": "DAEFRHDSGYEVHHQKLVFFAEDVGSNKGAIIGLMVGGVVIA", "assay": "cell-based", "conditions": "read-out: IC50 (±SD) of inhibitory effects of ACMs on Aβ42-mediated cell damage", "experimental": "Following incubation with the cells for ˜20 h (37° C., humidified atmosphere, 5% CO2), cell damage was assessed by measuring cellular MTT reduction.\nSolutions were aged for 1.5 h (37° C., shaking 500 rpm). Aliquots were diluted with cell medium, incubated with PC12 cells at the indicated final concentrations for ˜20 h and cellular MTT reduction was measured as above."}, "Aβ42 [2]": {"target": "T1, Aβ42", "assay": "Fluorescence spectroscopic titration of FITC-Aβ42 with ACMs", "conditions": "read-out: app. KD (±SD) of ACM/Aβ42 interactions; N-terminal FITC-labelled Aβ42 5 nM, pH 7.4; means from three binding curves", "experimental": "Fluorescence spectroscopic studies were performed with a Jasco FP-6500 fluorescence spectrophotometer. Briefly, excitation was at 492 nm and spectra were measured between 500 and 600 nm. All titrations were performed in freshly made solutions of synthetic N-terminal fluorescently labeled peptide (5 nM) and various amounts of unlabeled peptide in 10 mM sodium phosphate buffer, pH 7.4 (1% HFIP) within 2-5 min following solution preparation. Under these experimental conditions, freshly made solutions of Fluos-IAPP and FITC-Aβ42 (5 nM) consist mostly of monomers and the same was found for Fluos-ACMs (5 nM) (FIG. 13e and data not shown). Apparent binding affinities (app. KDs) were estimated by using 1/1 binding models. However, due to the high self-assembly propensities of involved peptides more complex models might also apply. Determined app. KDs are means (±SD) from three binding curves derived from three independent titration assays."}, "[3]": {"tested_on": "cultured murine BV2 microglia", "assay": "Phagocytosis of Aβ42 species with or without ACM", "format": "cell-based, mouse", "conditions": "1/1, co-incubation 2 h", "experimental": "Briefly, BV2 cells were maintained in GlutaMAX-supplemented RPMI1640 medium containing 10% FBS and 1% penicillin/streptomycin on poly-L-ornithine-coated flasks. For the phagocytosis assay, BV2 cells were seeded into 24-well plates containing coverslips in serum-free RPMI1640-GlutaMAX and further incubated for 24 h (5% CO2, 37° C.) to reach 10000 cells/well. Primary BMDMs were obtained from bone-marrow monocytes isolated from wildtype C57BL/6 mice, plated in 24-well plates at a density of 10000cells/well, and differentiated with L929 cell-conditioned medium (RPMI1640, 10% FBS, 1% penicillin/streptomycin) for 7 days. Thereafter, cells were incubated with aged peptide solutions at 37° C. for 6 h. […]\nFollowing incubation of the cells with the peptides, supernatants were removed and cells on the coverslips were washed 5 times with ice-cold 1×PBS, fixed with 4% paraformaldehyde, washed with 1×PBS, permeabilized with 0.2% Triton-X 100, and rinsed three times with cold 1×PBS. […] Images were acquired using a Leica DMi8 fluorescence microscope. The percentage of cells that had taken up peptides was calculated by dividing the number of BV2 cells or BMDMs that phagocytosed TAMRA-labeled peptide by the total cell count, multiplied by 100. Significance was analyzed by unpaired student's t-test."}, "IAPP": {"target": "T2, IAPP (Homo sapiens, UniProt P10997)", "T2 construct": "made in house; host or cells: chemical synthesis (Fmoc-SPPS), air-oxidised, RP-HPLC purified", "T2 sequence (P10997 34-70 limits assumed)": "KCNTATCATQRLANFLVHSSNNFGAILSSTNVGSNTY", "assay": "MTT reduction assay of IAPP-mediated cell damage in RIN5fm cells", "format": "cell-based", "experimental": "Briefly, cells were cultivated and platted in 96-well plates. Aliquots of solutions used for the ThT binding assays (see “ThT binding assays”) were diluted with cell medium at the indicated incubation time points (24 h or 7 days) and added to the cells at the indicated final concentrations. Following incubation with the cells for ˜20 h (37° C., humidified atmosphere, 5% CO2) cell damage was assessed by measuring cellular MTI reduction. IC50 values were determined."}, "Aβ42 [4]": {"target": "T1, Aβ42", "assay": "ThT binding assay of Aβ42 fibrillogenesis (self-assembly, seeding, cross-seeding)", "format": "biochemical", "experimental": "Aβ42 fibrillogenesis-related studies. […] Peptide incubations were performed in the presence of ThT in 96-well black MTPs (FluoroNunc, Thermo Fisher Scientific). […] Values of seeds or buffer alone were subtracted from the data in self-/cross-seeding assays; all other data shown are raw data except for data in FIG. 27b which were normalized).\nIncubations (37° C.) and determination of ThT fluorescence were performed as for all other Aβ42-related studies."}, "fIAPP": {"target": "T3, fIAPP (Homo sapiens, UniProt P10997)", "T3 construct": "made in house; host or cells: chemical synthesis (Fmoc-SPPS), air-oxidised, RP-HPLC purified", "T3 sequence (P10997 34-70 limits assumed)": "T2 sequence (P10997 34-70 limits assumed)", "assay": "Dot blot binding of Fluos-peptides to fIAPP", "conditions": "Fluos-peptides 0.2 μM", "experimental": "After blocking (5% milk in TBS-T, 2 h, RT) and several washing steps (with TBS-T and ThT buffer), membranes were incubated with N-terminal fluorescein-labeled ACMs (Fluos-ACMs) at 0.2 μM for IAPP-related membranes or 2 μM for Aβ42-related membranes; incubation was overnight (10° C.) in ThT buffer (containing 1% HFIP). To control for fibril autofluorescence, similar membranes were incubated in parallel with buffer only. Bound peptides were visualized using a LAS-400 mini instrument (Fujifilm) equipped with a suitable fluorescence filter."}}, "note": "Entries after “also recorded” stand apart in the source; their conditions may differ. Non-standard residues stand in square brackets, D forms with d. Residues, ends and D or L forms follow the SMILES beside them. NMeF = CN[C@@H](Cc1ccccc1)C(=O)O; NMeV = CN[C@H](C(=O)O)C(C)C; Nle = CCCC[C@H](N)C(=O)O"}
{"compound": "CC[C@H](C)[C@H](NC(=O)[C@H](C)NC(=O)CNC(=O)[C@H](Cc1ccccc1)NC(=O)[C@H](CC(N)=O)NC(=O)[C@H](CC(N)=O)NC(=O)[C@H](CO)NC(=O)[C@H](CO)NC(=O)[C@H](Cc1c[nH]cn1)NC(=O)[C@@H](NC(=O)[C@H](CC(C)C)NC(=O)[C@H](Cc1ccccc1)NC(=O)[C@H](CC(N)=O)NC(=O)[C@H](C)NC(=O)[C@H](CC(C)C)NC(=O)[C@H](CCCNC(=N)N)NC(=O)[C@H](CCC(N)=O)NC(=O)[C@@H](NC(=O)[C@H](C)NC(=O)[C@@H]1CSSC[C@H](NC(=O)[C@@H](N)CCCCN)C(=O)N[C@@H](CC(N)=O)C(=O)N[C@@H]([C@@H](C)O)C(=O)N[C@@H](C)C(=O)N[C@@H]([C@@H](C)O)C(=O)N1)[C@@H](C)O)C(C)C)C(=O)N[C@@H](CC(C)C)C(=O)N[C@@H](CO)C(=O)N[C@@H](CO)C(=O)N[C@H](C(=O)N[C@@H](CC(N)=O)C(=O)N[C@H](C(=O)NCC(=O)N[C@@H](CO)C(=O)N[C@@H](CC(N)=O)C(=O)N[C@H](C(=O)N[C@@H](Cc1ccc(O)cc1)C(N)=O)[C@@H](C)O)C(C)C)[C@@H](C)O", "note": "[IAPP]", "values": [{"measurement": "Time to degradation by proteinase K", "setting": "proteinase K", "result": "at least 30 h"}]}
{"compound": "CCCC[C@H](NC(=O)[C@H](CC(=O)O)NC(=O)[C@H](CCC(=O)O)NC(=O)[C@H](C)NC(=O)[C@H](Cc1ccccc1)N(C)C(=O)[C@H](Cc1ccccc1)NC(=O)[C@H](C(C)C)N(C)C(=O)[C@H](CC(C)C)NC(=O)[C@H](CCCCN)NC(=O)[C@@H](N)CCC(N)=O)C(=O)N[C@@H](CCCC)C(=O)N[C@@H](CCCC)C(=O)N[C@@H](CC(N)=O)C(=O)N[C@@H](CCCCN)C(=O)NCC(=O)N[C@@H](C)C(=O)N[C@H](C(=O)N[C@H](C(=O)NCC(=O)N[C@@H](CC(C)C)C(=O)N[C@@H](CCCC)C(=O)N[C@H](C(=O)NCC(=O)NCC(=O)N[C@H](C(=O)N[C@H](C(=O)O)C(C)C)C(C)C)C(C)C)[C@@H](C)CC)[C@@H](C)CC", "note": "[Nle3-VF] (H-QKL[NMeV]F[NMeF]AED[Nle][Nle][Nle]NKGAIIGL[Nle]VGGVV-OH)", "values": [{"measurement": "IC50", "setting": "Aβ42 [1]", "result": 367, "unit": "nM"}, {"measurement": "Kd", "setting": "Aβ42 [2]", "result": "14.5 ± 8", "unit": "nM"}, {"measurement": "Effect of addition to TAMRA-oAβ42 on Aβ42 phagocytosis", "setting": "[3]", "result": "increased Aβ42 phagocytosis"}, {"measurement": "Effect of addition to preformed fIAPP on fIAPP cytotoxicity (MTT reduction)", "setting": "IAPP; RIN5fm cells, ACM 33 μM added to fIAPP […], 1 day, fIAPP 500 nM", "result": "does not affect fIAPP cytotoxicity"}, {"measurement": "Effect on formation of cytotoxic IAPP assemblies (MTT reduction)", "setting": "IAPP; RIN5fm cells, aged (24 h or 7 days) IAPP/peptide 1/2 solutions", "result": "fully suppressed; also recorded: suppress formation of toxic IAPP assemblies"}, {"measurement": "IC50", "setting": "IAPP; read-out: IC50 (±SD) of inhibitory effects of ACMs on IAPP-mediated cell damage", "result": 65, "unit": "nM"}, {"measurement": "Effect of addition to preformed toxic Aβ42 oligomers on fibrillogenesis (ThT binding)", "setting": "Aβ42 [4]; 2 h-aged Aβ42, 1/1", "result": "delay of fibrillogenesis"}, {"measurement": "Effect of addition to already nucleated Aβ42 fibrillogenesis (ThT binding)", "setting": "Aβ42 [4]; Aβ42 5 μM, post-nucleation addition", "result": "does not affect amounts of already formed ThT-positive fibrils"}]}
{"compound": "QKL(N-Me)VF(N-Me)FAED - Val-Gly-Ser - NKGAIIGLNleVGGVV (H-QKL[NMeV]F[NMeF]AEDVGSNKGAIIGL[Nle]VGGVV-OH; SMILES CCCC[C@H](NC(=O)[C@H](CC(C)C)NC(=O)CNC(=O)[C@@H](NC(=O)[C@@H](NC(=O)[C@H](C)NC(=O)CNC(=O)[C@H](CCCCN)NC(=O)[C@H](CC(N)=O)NC(=O)[C@H](CO)NC(=O)CNC(=O)[C@@H](NC(=O)[C@H](CC(=O)O)NC(=O)[C@H](CCC(=O)O)NC(=O)[C@H](C)NC(=O)[C@H](Cc1ccccc1)N(C)C(=O)[C@H](Cc1ccccc1)NC(=O)[C@H](C(C)C)N(C)C(=O)[C@H](CC(C)C)NC(=O)[C@H](CCCCN)NC(=O)[C@@H](N)CCC(N)=O)C(C)C)[C@@H](C)CC)[C@@H](C)CC)C(=O)N[C@H](C(=O)NCC(=O)NCC(=O)N[C@H](C(=O)N[C@H](C(=O)O)C(C)C)C(C)C)C(C)C) [VGS-VF]", "values": [{"measurement": "Binding to fIAPP (dot blot)", "setting": "fIAPP", "result": "bind fIAPP"}]}
